Legend:
[1] = target: Substance P 1-7 binding site; experiment: Displacement of [3H]-SP1-7 from SP1-7 binding site by scintillation counting analysis
[2] = target: Substance P 1-7 binding site; experiment: Binding affinity to SP1-7 binding site

Structure (SMILES)	IC50 [1]	Ki [2]	Ki [1]
N#CNC(=O)[C@H](Cc1ccccc1)NC(=O)OCc1ccccc1	17 nM		
O=C(N[C@@H](Cc1ccccc1)c1nnc(-c2ccccc2)o1)OCc1ccccc1	9 nM		
O=C(N[C@@H](Cc1ccccc1)C(=O)NNC(=O)c1ccccc1)OCc1ccccc1	6.5 nM		
NC(=O)[C@H](Cc1ccccc1)NC(=O)OCc1ccccc1	6.2 nM	5.2 nM	5.2 nM

— BindingDB's records for doi:10.1021/ml5002954 (Uppsala University, 2014)
